Consider one substance from patent publication US20130331331A1, “HEXAPEPTIDE WITH IMPROVED ACTIVITY IN THE REPAIR OF CELLULAR DNA OF DERMAL CELLS” (priority 2011, published 2013).

In one experiment the test system is melanocyte strain 1505b. In words: Tyrosinase activity as a measure of stability / residual effect, strain 1505b. It is filed as cell-based, human. The method, then: To determine the residual effect of CUV9900, as compared to NDP-MSH and α-MSH, on tyrosinase activity, melanocytes were treated with either CUV9900 or NDP-MSH at the concentrations previously described for a total of 3 days. Tyrosinase activity was measured at the end of the 3 days of treatment, and 2 and 4 days after maintenance of the melanocytes in the complete absence of any treatment.
With continued reference to FIGS. 7, 8 and 9, to determine the stability of CUV9900 versus that of NDP-MSH and α-MSH, melanocytes were treated with 1 nM of each peptide, namely with CUV9900, NDP-MSH and α-MSH, for a total of 6 days, or with 1 nM peptides that were incubated for 5 hours at 37° C. prior to addition to the cultures, every other day, for a total of 6 days. Tyrosinase activity was measured at the end of treatment. In the experiments, cell number represents the mean percent of control of 3 determinations/group±SE, and tyrosinase activity data represent the mean percent of control of 6 determinations±S.E. It should be noted that for the sake of reproducibility the experiment of strain 1513c of FIG. 9 was performed once more 6 months later than the experiment of FIG. 7.
Melanocytes were treated for 3 days with the designated concentrations of CUV9900, NDP-MSH, or MSH, then maintained in absence of peptides for 4 days. Tyrosinase activity was determined 3 days after treatment.
Tyrosinase activity as a measure of stability is shown in Tables 4 to 6 below, wherein Table 4 is based on data derived from FIG. 7, Table 5 is based on data derived from FIG. 9, and Table 6 is based on data derived from FIG. 8: […]

In another experiment the test system is melanocyte strain 102b. In words: Tyrosinase activity dose-response, strain 102b. It is filed as cell-based, human. To be noted: subnanomolar concentrations. The method, then: Cell numbers as well as tyrosinase activity were then determined. Tyrosinase activity was calculated first at activity/10^6 cells, and then as % of control. […] The conditioned medium from each dish was collected to be assayed for tyrosinase activity, and the cell numbers were determined using a Coulter Counter. Triplicate dishes were included in each group, and duplicate samples from each dish were assayed for tyrosinase activity.

Experiment [1] has as its system melanocytic strains 1563c and 102b. Description: Ultrastructural visualization of DOPA-stained HM (electron microscopy). It is filed as cell-based, human. To be noted: 0.1 nM or 1 nM CUV9900, 1 nM MSH. The procedure:
With reference to FIGS. 14 and 15, two melanocytic strains, a lightly pigmented strain 1563c of FIG. 14 and strain 102b of FIG. 15 were plated in 4-well chamber slides and treated […] with either 0.1 nM or 1 nM CUV9900 or 1 nM MSH for a total of 6 days. Cells were processed for electron microscopy in the presence or absence of histochemical reaction with DOPA. Microtome sections were analyzed in a JEOL JEM-1230 transmission electron microscope and photomicrographs (15,000×) of the perinuclear area and dendrites were taken for each experimental group.

The test system of experiment [2] is melanocytes strain 1505b. Description: Tyrosinase activity dose-response, strain 1505b. It is filed as cell-based, human. The method, then:
Dose-response experiments were carried out on another adult strain 102b which is shown in FIG. 6 and on the strain 1505b which is a melanocyte strain: melanocytes were treated with 0.001-10 nM CUV9990 or NDP-MSH, or 0.1-10 nM MSH for a total of 6 days, with the culture medium changed and fresh peptide added every other day. Cell numbers as well as tyrosinase activity were then determined. Tyrosinase activity was calculated first at activity/10^6 cells, and then as % of control. Twenty-four hours prior the end of the experiment, melanocytes received […] (0.7 μCi/ml medium). The conditioned medium from each dish was collected to be assayed for tyrosinase activity, and the cell numbers were determined using a Coulter Counter. Triplicate dishes were included in each group, and duplicate samples from each dish were assayed for tyrosinase activity. Each data point is the mean percent of control of 6 determinations/group±S.E.

Experiment [3] concerns melanocytes strain 1505b. Description: cAMP levels, radioimmunoassay, strain 1505b. It is filed as cell-based, human. The settings on record: 1 nM, 45 min, 0.1 mM IBMX. The procedure:
Dose-response experiments were carried out on three melanocytic strains, namely strains 1513c, 1505b and 105c melanocytes were treated with 1 pM-10 nM CUV9900 or NDP-MSH, or with 0.1-10 nM MSH for 45 minutes in the presence of 0.1 mM isobutyl methylxanthine (IBMX). The results obtained from strain 1513c are shown in FIG. 3, the results obtained from strain 1505b are shown in FIG. 5a and the results obtained from strain 105c are shown in FIG. 5b. The strains 1505b and 1513c were obtained from the same human adult while the strain 105c was obtained from another human adult. Cyclic AMP is the second messenger for the melanocortin-1 receptor, and assessment is usually performed indicating cellular activity reflective of melanogenesis. Cyclic AMP levels were determined using ^125I-labeled radioimmunoassay kit (Perkin Elmer, Waltham, Mass.), in human melanocytes that were treated with 0 (control), 0.1-10.0 nM α-MSH, or 0.001-10 nM NDP-MSH or 0.001-10.0 nM CUV 9900 for […]. in the presence of 0.1 mM IBMX, a phosphodiesterase inhibitor to prevent cAMP degradation. Triplicate wells were included in each group, and duplicate samples from each well were assayed for cAMP levels. Each data point is the mean percent of control of 6 determinations/group±S.E.
Background: Cyclic AMP is a second messenger, typically raised through Gs and lowered through Gi signalling.

In the next experiment the test system is human melanocytes. Description: DNA damage as measured by 8-oxo-dG immunofluorescence. It is filed as cell-based. An excerpt:
DNA damage of cultured melanocytes following UV irradiation leads to consistent levels of photoproducts such as 8-oxo-dG. It is well established in the art (dermal carcinogenesis) that 8-oxodG is a major form of UV-induced oxidative DNA damage, which results from the generation of reactive oxygen species (ROS). The induction of 8-oxodG by 8-oxo-dGTP can be inhibited by pyrophosphohydrolases (8-[…]) that convert it to 8-oxo-dGMP. […] Immunofluorescence was detected using a microscope with FITC filters. Data were expressed as the mean fluorescence intensity±S.E., determined using the densitometry values from 6-8 randomly obtained images, using the computer assisted program Alpha Inotech Imaging System and the AlphaEase FC StandAlone Software.

Non-standard residues stand in square brackets, D forms with d. Nle = CCCC[C@H](N)C(=O)O

Consider “Ac-Nle-Glu His-D-Phe-Arg-Trp-NH2 (Ac-[Nle]EH[dF]RW-NH2; SMILES CCCC[C@H](NC(C)=O)C(=O)N[C@@H](CCC(=O)O)C(=O)N[C@@H](Cc1c[nH]cn1)C(=O)N[C@H](Cc1ccccc1)C(=O)N[C@@H](CCCNC(=N)N)C(=O)N[C@@H](Cc1c[nH]c2ccccc12)C(N)=O) [CUV9900, hexapeptide alpha-MSH analogue]”, for which, in the experiment on melanocyte strain 1505b, the “superior tyrosinase activity in comparison to MSH” value is 18.7% and the “superior tyrosinase activity in comparison to NDP-MSH” value was found to be 32.1%. Further, in the experiment on melanocyte strain 1505b (0.1 nM CUV9900 vs 1 nM MSH), the “residual effects on tyrosinase activity 4 days after peptide removal, CUV9900 vs MSH” value is on record as “equal”. For the same substance, the “stimulation of tyrosinase activity, comparison” value in the experiment on melanocyte strain 102b is given as “greater stimulation of tyrosinase activity than NDP-MSH”. Also, the “melanosomes and DOPA reactivity by electron microscopy” value in experiment [1] was “increased mature (stage IV) melanosomes in the perinuclear area and more so in dendrites”. In the experiment on melanocytes strain 1505b [2], the “effect on tyrosinase activity, comparison” value is “equivalent to that of NDP-MSH”. In the experiment with melanocytes strain 1505b [2] (6 days treatment), the “minimal effective dose, tyrosinase activity” value amounted to 1 pM. Moreover, the “cAMP, potency comparison” value in the experiment on melanocytes strain 1505b [3] is recorded as “more potent than MSH”. Moreover, the “less 8-oxo-dG cellular DNA damage in comparison with alpha-MSH” value in the experiment with human melanocytes is 33%.
